Each block holds one compound with its values, some of them ahead of it.
Key:
Pparγ = assay: B-DNA gene expression assay, carbon tetrachloride (CCl4) rat model, liver; type: in vivo, Sprague-Dawley rat; conditions: CCl4 rats; 3 mg/kg; FIG. 2C
Description: Male, Sprague-Dawley rat were dosed with 0.25 ml/kg of CCl4 PO three times a week diluted in corn oil for the duration of the study (8 weeks). Control animals received an equivalent volume of corn oil. Two weeks after beginning the administration of CCl4, animals were given a chow admixture containing Compound A calculated to achieve doses of 3 mg/kg/day.
(§1) For gene expression analysis, 5-10 mg of tissue samples from ZSF1 rat liver, CCl4 rat liver, or DIO mice brain hypothalamus, or approximately 50 mg of white adipose tissue (WAT) from ZSF1 rat were homogenized and processed using QuantiGene sample processing kit according to manufacturer's instruction (Affymatrix, Fremont, CA). Gene expression in the tissue samples was measured using a QuantiGene 2.0 Plex Assay kit (Affymetrix) and multiplex gene panel specifically designed for each animal model following manufacture instructions. Analytes were measured using Luminex MAGPIX™ (Bio-Rad, Hercules, CA). Median fluorescence intensity (MFI) was generated for each gene target and normalized to the geometric mean expression of selected housekeeping genes, which were chosen to match the target transcript abundance.

ADMA = conditions: diabetic patients; fourteen-day study (Hanrahan et al 2018); cited from earlier work
AMPK = assay: B-DNA gene expression assay, DIO mouse model, WAT; type: in vivo; conditions: DIO mice; 6 mg/kg in diet, 28 days; FIG. 2A (AMPKα1, eWAT)
Description: (§2) Animals were fed either chow or high fat diet (Research Diets). The lean mice were maintained on a standard chow diet. The obese mice were given 60% high fat diet (HFD) starting at 6 weeks of age. All animals were allowed free access to drinking water and chow. The study began when the mice were 12 weeks of age and concluded after 4 weeks (16 weeks of age). The obese control group was maintained on HFD. Groups receiving compound treatments were fed with HFD containing 90 mg Compound A/kg diet (an approximate dose of 6 mg/kg) or 45 mg vericiguat/kg diet (an approximate dose of 3 mg/kg). Body weights were determined twice weekly and food intake was measured daily for 28 days. […]
as §1, with “Median fluorescence intensity (MFI) was generated for each gene target and normalized to the geometric mean expression of selected housekeeping genes, which were chosen to match the target transcript abundance.” left out

Pparα = assay: B-DNA gene expression assay, DIO mouse model, WAT; type: in vivo; conditions: DIO mice; 6 mg/kg in diet, 28 days; FIG. 2B (eWAT)
Description: as §2
as §1, with “Median fluorescence intensity (MFI) was generated for each gene target and normalized to the geometric mean expression of selected housekeeping genes, which were chosen to match the target transcript abundance.” left out

PGC1α [1] = assay: B-DNA gene expression assay, ZSF1 rat model; type: in vivo; conditions: ZSF1 obese rats
Description: There are 4 groups of animals in the study design: • 1. ZSF1 Lean—Vehicle (n=6) • 2. ZSF1 Obese—Vehicle (n=9) • 3. ZSF1 Obese—Compound A 10 mg/kg/day (n=9) • 4. […]
Animals in Group 4 was placed on drinking water containing enalapril and kept on Purina 5008 rodent chow (C13000). Animals in Groups 1-3 were kept on Purina 5008 rodent chow and drinking water. Ten days after the initiation of enalapril treatment, […] received Compound A at 10 mg/kg/day, respectively for 11 weeks (monotherapy). Beginning on day 10, animals in Groups 3 and 4 received Compound A at 10 mg/kg/day in addition to enalapril for an additional 11 weeks (combination therapy). […]
as §1, with “Median fluorescence intensity (MFI) was generated for each gene target and normalized to the geometric mean expression of selected housekeeping genes, which were chosen to match the target transcript abundance.” left out

TFAM = assay: bDNA gene expression assay in patient cells; type: cell-based, human; conditions: in the presence of DETA
Description: (§3) Lymphoblast cells of LHON patient (GM11605 and GM10742) and Leigh patient (GM13740) were purchased from Coriell institute and cultured according to recommended growth condition from the vendor. The culture medium RPMI-1640 (ATCC, catalog #30-2006) containing 15% fetal bovine serum (Corning catalog #35-015-CV).
(§4) Coriell cells were plated on 96-well V-bottom culture plate (Corning Catalog #3894) at density of 200,000 cells per well in 90 ul RPMI-1640 media containing 2% FBS. Three hours later, 10 μL per well of 10× compounds (at its final conc.) diluted in RPMI-1640 media containing 2% FBS were added to the cells and incubated at 37 C for 24 hrs. The next day, cells were spun down by centrifuging in a benchtop centrifuge (Beckman Model #TJ-25) at 300 g for 5 min, media was removed and cell pellets were lysed in 100 μL/well with lysis mixture provided by QuantiGene sample processing kit (Affymetrix catalog #QS010). Gene expression in the cell lysates was measured using a QuantiGene 2.0 Plex Assay kit (Affymetrix catalog #QP1013) and multiplex gene panel (Thermo/Fisher, plex set #QGP-150-M19022101) according to manufacturer's protocols. Analytes were measured using Luminex MAGPIX™ (Bio-Rad, Hercules, CA). Median fluorescence intensity (MFI) was generated for each gene target and normalized to the geometric mean expression of three housekeeping genes (Hprt1, Ppib and Polr2a), which were chosen to match the target transcript abundance.

DDAH2 = assay: bDNA gene expression assay in patient cells; type: cell-based, human; conditions: in the presence of DETA
Description: as §3, §4

[2] = tested on: LHON patient cells GM11605; assay: ATP assay (ATPlite); type: cell-based, human; conditions: compound alone or in combination with DETA, 24 hrs
Description: as §3
(§5) Corielll cells were plated on 96-well V-bottom culture plate (Corning Catalog #3894) at density of 200,000 cells per well in 90 ul RPMI-1640 media containing 2% FBS. Three hours later, 10 μL per well of 10× compounds (at its final conc.) diluted in RPMI-1640 media containing 2% FBS were added to the cells and incubated at 37 C for 24 hrs. The next day, ATP levels in the cells were measure using ATPlite kit (PerkinElmer Cat #6016943)

[3] = tested on: Leigh patient cells GM13740; assay: ATP assay (ATPlite); type: cell-based, human; conditions: compound alone or in combination with DETA, 24 hrs
Description: as §3, §5

[4] = tested on: LHON patient cells GM10742; assay: ATP assay (ATPlite); type: cell-based, human; conditions: compound alone or in combination with DETA, 24 hrs
Description: as §3, §5

PGC1α [5] = assay: B-DNA gene expression assay, diet-induced obesity (DIO) mouse model, hypothalamus; type: in vivo; conditions: DIO mice, compound in high fat diet; FIG. 1C
Description: as §2
as §1, with “Median fluorescence intensity (MFI) was generated for each gene target and normalized to the geometric mean expression of selected housekeeping genes, which were chosen to match the target transcript abundance.” left out

sGC = target: T1, sGC (Homo sapiens, UniProt Q02153); assay: cGMP measurement in mitochondrial disease patient lymphoblast cells; type: cell-based; conditions: in combination with DETA
T1 construct: confirming functional expression of sGC in these patient cells; host or cells: human LHON and Leigh patient lymphoblast cells
T1 sequence (Q02153 1-619): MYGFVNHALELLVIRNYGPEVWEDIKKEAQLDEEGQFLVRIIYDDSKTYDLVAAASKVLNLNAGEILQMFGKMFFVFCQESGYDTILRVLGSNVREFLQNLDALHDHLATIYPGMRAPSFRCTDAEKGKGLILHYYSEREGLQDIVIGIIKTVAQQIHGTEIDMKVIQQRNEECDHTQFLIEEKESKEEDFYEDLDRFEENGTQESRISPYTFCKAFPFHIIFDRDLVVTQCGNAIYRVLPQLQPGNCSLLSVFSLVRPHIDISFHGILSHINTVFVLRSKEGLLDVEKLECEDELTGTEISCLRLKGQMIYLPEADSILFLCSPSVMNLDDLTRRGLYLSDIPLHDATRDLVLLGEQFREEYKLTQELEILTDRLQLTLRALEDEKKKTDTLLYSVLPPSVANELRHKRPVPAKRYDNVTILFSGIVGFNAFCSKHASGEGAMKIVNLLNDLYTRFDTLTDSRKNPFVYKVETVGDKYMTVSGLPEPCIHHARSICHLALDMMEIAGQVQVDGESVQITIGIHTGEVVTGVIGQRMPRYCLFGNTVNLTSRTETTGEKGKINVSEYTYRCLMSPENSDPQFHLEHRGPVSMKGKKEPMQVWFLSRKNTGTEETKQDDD
T1 sequence (Q02108 1-690 partner): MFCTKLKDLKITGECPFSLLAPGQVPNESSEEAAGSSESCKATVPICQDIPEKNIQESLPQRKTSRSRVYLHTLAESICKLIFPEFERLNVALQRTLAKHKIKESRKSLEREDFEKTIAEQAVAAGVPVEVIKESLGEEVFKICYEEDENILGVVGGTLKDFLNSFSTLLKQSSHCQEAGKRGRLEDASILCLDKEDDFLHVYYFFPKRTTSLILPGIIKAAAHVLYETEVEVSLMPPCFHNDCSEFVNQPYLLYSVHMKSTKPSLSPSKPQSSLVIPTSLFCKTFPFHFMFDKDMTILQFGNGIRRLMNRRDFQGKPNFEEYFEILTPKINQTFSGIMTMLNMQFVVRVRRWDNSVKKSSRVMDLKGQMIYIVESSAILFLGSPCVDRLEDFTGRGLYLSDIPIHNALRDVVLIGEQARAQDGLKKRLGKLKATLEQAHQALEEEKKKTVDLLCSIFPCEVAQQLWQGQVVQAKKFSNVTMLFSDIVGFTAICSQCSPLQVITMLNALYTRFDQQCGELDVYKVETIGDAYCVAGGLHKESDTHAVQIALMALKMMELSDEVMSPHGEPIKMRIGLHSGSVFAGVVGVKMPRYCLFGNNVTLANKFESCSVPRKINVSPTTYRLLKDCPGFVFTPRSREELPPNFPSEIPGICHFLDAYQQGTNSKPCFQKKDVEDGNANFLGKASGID
Description: as §3
On the day of the assay, Coriell cells were plated on 96-well V-bottom culture plate (Corning Catalog #3894) at density of 200,000 cells per well in 100 ul culture media. Right before the assay, cells were spun down by centrifuging in a benchtop centrifuge (Beckman Model #TJ-25) at 300 g for 5 min, media was removed and cell pellets were carefully washed once with 200 μL of HBSS containing Ca^2+ and Mg^2+ (Gibco catalog #14025-075). The cells were spun down, then 90 μL per well of HBSS containing 0.5 mM IBMX was added to the cells and were incubated at 37° C. for 15 min. Then 10 μL per well of 10× compounds (at its final conc.) diluted in HBSS solution containing IBMX plus different concentration of NO donor, DETA (final concentration of 0, 10 μM, 30 μM) was added to the cells and incubated at 37° C. for another 20 min. Cell pellets were spun down and lysed with 0.1 N HCl (100 ul/well). cGMP was measured using a cGMP Biotrak EIA kit (GE cat no. RPN226). cGMP concentrations of the samples were calculated from the standard curve.

Compound: OC(CNc1nc(-c2cc(-c3ccon3)n(Cc3ccccc3F)n2)ncc1F)(C(F)(F)F)C(F)(F)F [Compound A]
gene expression level of Pparγ in liver (Pparγ): increased
levels of circulating ADMA (ADMA): reduced
gene expression level of AMPK in WAT (AMPK): increased
gene expression level of Pparα in WAT (Pparα): increased
gene expression level of PGC1α in white adipose tissue (WAT) (PGC1α [1]; 10 mg/kg in combination with enalapril at 3 mg/kg, FIG. 1A): increased

Compound: Fc1ccccc1Cc1nc(-c2nc(C(F)(F)F)n[nH]2)cn2ccnc12 [Compound B]
TFAM gene expression level (TFAM; LHON patient cells (GM11605), FIG. 5A): increased
TFAM gene expression level (TFAM; Leigh patient cells (GM13740), FIG. 6A): increased
DDAH2 gene expression level (DDAH2; LHON patient cells (GM11605), FIG. 5B): increased
DDAH2 gene expression level (DDAH2; Leigh patient cells (GM13740), FIG. 6B): increased
ATP production / ATP level [2]: increase
ATP production / ATP level [3]: increase
ATP production / ATP level [4]: increase
PGC1α expression in hypothalamus (PGC1α [5]): increased PGC1α expression significantly

Compound: NC(=O)[C@](O)(CNc1nc(-c2cc(-c3ccon3)n(Cc3ccccc3F)n2)ncc1F)C(F)(F)F [Compound D]
ATP production / ATP level [3]: increased ATP levels significantly
gene expression level of PGC1α in liver (PGC1α [1]; 30 mg/kg in combination with enalapril at 3 mg/kg, FIG. 1B): increased

cGMP formation (sGC; LHON patient cells GM10742, FIG. 3B): significantly activated
cGMP formation (sGC; LHON patient cells GM11605, FIG. 3A): significantly activated
cGMP formation (sGC; Leigh patient cells GM13740, FIG. 3C): significantly activated
Compound: Fc1ccccc1Cn1nc(-c2nc(C(F)(F)F)n[nH]2)c2cccnc21 [Compound E]
ATP production / ATP level [2]: significantly increase
ATP production / ATP level [3]: significantly increase

Reference: patent US12220414B2, “Use of sGC stimulators for the treatment of mitochondrial disorders” (Tisento Therapeutics Inc., priority 2018, dated 2025)
